In US20260234165A1, “MACROCYCLIC COMPOUNDS, PREPARATION METHOD THEREFOR, AND USE THEREOF” (GENFLEET THERAPEUTICS (SHANGHAI) INC., priority 2004, published 2026):
Read-outs that look alike come from different tables or passages of the source.

Experiments:
[1] = Pharmacokinetic study in rats; assay type: in vivo, Sprague-Dawley (SD) rats; settings: male SD rats; for AUC / Cmax: PO (intragastric), dose 10 mg/kg
Excerpt: A total of 6 healthy adult male Sprague-Dawley (SD) rats were provided by Zhejiang Vital River Laboratory Animal Technology Co., Ltd. For each test compound, 6 healthy adult male SD rats were selected and randomly divided into 2 groups: an intravenous administration (IV) group and an intragastric administration (PO) group. The LC-MS/MS method was used to determine the drug concentrations in the plasma of rats at different time points after intravenous and intragastric administration of the test compounds. This experiment was intended to investigate the pharmacokinetic performance of the test compounds in rats and to evaluate the pharmacokinetic characteristics. Each drug used in the experiment was prepared from the test compound powder: An appropriate amount of test compound powder was weighed out, and appropriate amounts of DMSO, a 10% aqueous Solutol HS 15 solution, and a 6% aqueous HP-β-CD solution were sequentially added according to a volume ratio of 5:10:85. The mixture was vortexed and sonicated until clarification. The final concentration of the drug in the IV group was 0.5 mg/mL, and the final concentration of the drug in the PO group was 1 mg/mL; the concentrations could be adjusted according to actual needs. For the drug in the PO group of Z504, an appropriate amount of test compound powder was weighed out, and an appropriate amount of 0.5% MC+0.2% Tween 80 aqueous solution was added. The mixture was well mixed by vortexing to give a 1 mg/mL homogeneous suspension: the concentration could be adjusted according to actual needs.
All experimental rats were fasted overnight, and food intake was resumed 4 h after administration. For the rats in the IV group, the administration volume was set at 2 mL/kg, with Z554 and Z915 administered at a dose of 0.5 mg/kg and the other compounds at a dose of 1 mg/kg. For the rats in the PO group, the administration volume was 10 mL/kg and the dose was 10 mg/kg. The administration amount was adjusted according to the body weight of the rats on the day of administration. In the experiment, blood samples were collected from the rats in the IV group at multiple time points (0.0833 h, 0.25 h, 0.5 h, 1 h, 2 h, 4 h, 7 h, and 24 h) after administration, while blood samples were collected from the PO group at 0.25 h, 0.5 h, 1 h, 2 h, 4 h, 7 h, and 24 h after administration, with approximately 100 μL collected each time via the orbital blood collection method.
The blood samples were placed in centrifuge tubes containing EDTA-K2 and centrifuged at 8000 rpm for 4 min within 30 min to separate the supernatant plasma. The resulting plasma samples were stored at −20° C. for later use. For sample analysis, 20 μL of each of plasma samples and calibration standards was added to a 96-well plate, and 160 μL of acetonitrile containing 100 ng/mL tolbutamide was added. The samples were vortexed for 5 min for uniform mixing, and then centrifuged at 4000 rpm for 15 min. After the centrifugation was completed, 50 μL of supernatant was added to a 96-well plate containing 150 μL of deionized water. The plate was then sealed and shaken for uniform mixing. Sample analysis was performed by LC-MS/MS.
The sampling volume could be adjusted according to actual needs, but the final concentration should be kept unchanged.

[2] = tested on: p-ERK in AsPC-1 cells (KRAS G12D mutation); assay: Cell p-ERK assay (HTRF) in AsPC-1 cells; assay type: cell-based, human; settings: AsPC-1 cells, 3 h compound incubation, HTRF p-ERK T202/Y204, read-out: AsPC-1 p-ERK IC50
In short: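 Cells are plated (AsPC-1 at 10000, NCI-H441 at 20000 per well) and cultured overnight. Next day compound is added in a 3.16-fold dilution series with 0.1% DMSO and left 3 h. After lysis, p-ERK antibodies incubate 4 h before HTRF reading and four-parameter IC50 fitting.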

[3] = Sprague-Dawley, rat, plasma, IV, dose 1 mg/kg
[4] = Sprague-Dawley, rat, plasma, read-out: AUC
[5] = Sprague-Dawley, rat, plasma, read-out: Cmax
[6] = Sprague-Dawley, rat, plasma, IV, dose 0.5 mg/kg

Row | Compound | clearance [1, 3] [mL/min/kg] | AUC [1, 4] [ng·h/mL] | Cmax [1, 5] [ng/mL] | IC50 ([2]; Homo sapiens, ASPC1, 3 h) [nM] | clearance [1, 6] [mL/min/kg] | CL ([1]; IV, dose 1 mg/kg) [mL/min/kg] | AUC [1] [ng·h/mL] | Cmax [1] [ng/mL] | IC50 [2] [nM]
1 | CCn1c(-c2cc(C#CCN3CCS(=O)(=O)CC3)cnc2[C@H](C)OC)c2c3cc(ccc31)-c1csc(n1)C[C@H](Nc1nnc3cc(C)ccn13)C(=O)N1CCC[C@H](N1)C(=O)OCC(C)(C)C2 (atropisomer, axis not shown; (Ra)) [Compound Z911, (6^3S,4S,Z)—(Ra)-1^2-(5-(3-(1,1-dioxidothiomorpholino)prop-1-yn-1-yl)-2-((S)-1-methoxyethyl)pyridin-3-yl)-1^1-ethyl-10,10-dimethyl-4-((7-methyl-[1,2,4]triazolo[4,3-a]pyridin-3-yl)amino)-6^1,6^2,6^3,6^4,6^5,6^6-hexahydro-1^1H-8-oxa-2(4,2)-thiazola-1(5,3)-indola-6(1.3)-pyridazinacycloundecaphane-5,7-dione] | 0.41 | 2540 | 427 | 2.23 |  |  |  |  | 
2 | CCn1c(-c2cc(C#CCN3CCCOCC3)cnc2[C@H](C)OC)c2c3cc(ccc31)-c1csc(n1)C[C@H](NC(=O)CC1CC1)C(=O)N1CCC[C@H](N1)C(=O)OCC(C)(C)C2 (atropisomer, axis not shown; (Ra)) [Compound Z915] |  | 6840 | 1730 | 1.26 | 6 |  |  |  | 
3 | CCn1c(-c2cc(C#CCN3CCCOCC3)cnc2C(C)C)c2c3cc(ccc31)-c1csc(n1)C[C@H](NC(=O)[C@H]1[C@H](C)[C@@H]1C)C(=O)N1CCC[C@H](N1)C(=O)OCC(C)(C)C2 (atropisomer, axis not shown; (Sa)) [Compound Z811-2, (1r,2R,3S)—N-((6^3S,4S,Z)—(Sa)-1-(5-(3-(1,4-oxazepan-4-yl)prop-1-yn-1-yl)-2-isopropylpyridin-3-yl)-1^1-ethyl-10,10-dimethyl-5,7-dioxo-6^1,6^2,6^3,6^4,6^5,6^6-hexahydro-1^1H-8-oxa-2(4,2)-thiazola-1(5,3)-indola-6(1,3)-pyridazinacycloundecaphane-4-yl)-2,3-dimethylcyclopropane-1-carboxamide] |  |  |  |  |  | 1.14 | 29002 | 4303 | 0.58
4 | CCn1c(-c2cc(C#CCN3CCCOCC3)cnc2[C@H](C)OC)c2c3cc(ccc31)-c1csc(n1)C[C@H](NC(=O)[C@H]1[C@H](C)[C@@H]1C)C(=O)N1CCC[C@H](N1)C(=O)OCC(C)(C)C2 (single isomer, unassigned) [Compound Z504] | 4 | 5320 | 605 | 0.16 |  |  |  |  | 
5 | CCn1c(-c2cc(C#CCN3CCC3)cnc2[C@H](C)OC)c2c3cc(ccc31)-c1csc(n1)C[C@H](NC(=O)[C@H]1[C@H](C)[C@@H]1C)C(=O)N1CCC[C@H](N1)C(=O)OCC(C)(C)C2 (single isomer, unassigned) [Compound Z554] |  | 16600 | 2780 | 0.67 | 2.52 |  |  |  | 
6 | CCn1c(-c2cc(C#CCN3CCCOCC3)cnc2[C@H](C)OC)c2c3cc(ccc31)-c1csc(n1)C[C@H](NC(=O)[C@H]1C[C@@H]1C)C(=O)N1CCC[C@H](N1)C(=O)OCC(C)(C)C2 (single isomer, unassigned) [Compound Z604] | 2.46 | 14600 | 3010 | 0.51 |  |  |  |  | 
7 | CCn1c(-c2cc(C#CCN3CCCOCC3)cnc2[C@H](C)OC)c2c3cc(ccc31)-c1csc(n1)C[C@H](NC(=O)CC(C)C)C(=O)N1CCC[C@H](N1)C(=O)OCC(C)(C)C2 (single isomer, unassigned) [Compound Z803] | 1.83 | 8400 | 1110 | 0.85 |  |  |  |  | 
